Source: patent US9157105B2, “Biosynthesis of CMP-legionaminic acid from fructose-6-P, and respective pathway intermediates, using novel GDP-linked precursors” (priority 2008, dated 2015)

test system: LegB (Cj1319, 4,6-dehydratase); experiment: LegB C4,6 dehydratase reaction with NDP-sugars; type: biochemical, Campylobacter jejuni 11168; conditions: in the presence or absence of NAD(P)+
Method: Enzymatic reactions were performed for 4.5 h at 37° C., and then overnight at 25° C., with approximately 200 μg ml^−1 respective protein concentration using chemicals from Sigma (unless otherwise indicated). GDP-glucosamine biosynthesis. The ‘one-pot’ enzymatic synthesis of GDP-GlcN from Fru-6-P (I→IV) was accomplished using a 3 ml reaction containing His6PtmF, PtmAHis6, PgmLHis6, His6PtmE, 5 mM Fru-6-P (I), 10 mM L-Gln, 1 mM DTT, 5 mM MgCl2, 0.8 U ml^−1 pyrophosphatase, and 2.5 mM GTP in 25 mM Tris pH 7.5. Large-scale enzymatic synthesis of GDP-GlcN (IV) was accomplished using a 12 ml reaction containing 50 mM Tris pH 7.5, 1 mM GTP, 1 mM MgCl2, 0.8 U ml^−1 pyrophosphatase, 1.2 mM GlcN-1-P (III) and approximately 4.8 mg of His6PtmE. The large-scale enzymatic synthesis of GDP-GlcNAc was performed similar to that above, except the scale was increased five-fold and GlcNAc-1-P was used in place of GlcN-1-P (III). Assessment of His6PtmE substrate specificity was accomplished using 9 reactions, 80 μl each, containing 50 mM Tris pH 7.5, 2 mM MgCl2, 50 μg His6PtmE, and various combinations of 10 mM sugar-1-P (GalN-1-P, GlcN-1-P or GlcNAc-1-P) and 0.2 mM NTP (CTP, GTP, or TTP). Conversion of GDP-GlcN to GDP-GlcNAc. The His6GlmU reaction was performed using 1 mM GDP-GlcN (IV), 1.2 mM acetyl-CoA and His6GlmU in 25 mM sodium phosphate pH 7.8, 25 mM NaCl, 10 mM β-mercaptoethanol. In addition, a control reaction was performed containing 1 mM GlcN-1-P (III) instead of IV. Biosynthesis of legionaminic acid from GDP-GlcNAc. The stepwise enzymatic synthesis of intermediates or products was accomplished in 2 stages (V→VI→VII→VIII, and then VIII→IX→X) using 1 mM of V, 0.5 mM NAD, 0.8 mM PLP, 8 mM L-Glu, 1.2 mM acetyl-CoA, 1.2 mM PEP, LegBHis6, His6LegC, His6LegH, His6LegG, and His6LegI as appropriate, in 25 mM sodium phosphate pH 7.3, 25 mM NaCl. Assessment of His6LegG activity involved monitoring the reaction kinetics by ^1H NMR (see NMR spectroscopy) for 75 min using 0.75 mM GDP-2,4-diacetamido-2,4,6-trideoxy-α-D-Glc (VIII), 4 μg His6LegG in 200 μl of 25 mM sodium phosphate pH 7.3, 25 mM NaCl at 25° C. In addition, the substrate flexibility of His6LegG was assessed using a 300 μl reaction containing 40 μg His6LegG, 25 mM sodium phosphate pH 7.3, 25 mM NaCl, and 0.75 mM UDP-2,4-diacetamido-2,4,6-trideoxy-α-D-Glc, with incubation at 37° C. for 1.5 h, and then overnight at 25° C. Biosynthesis of CMP-legionaminic acid. The CMP-activation of legionaminic acid (X→XI) was performed using a 20 ml reaction containing approximately 0.2 mM of X, 50 mM MgCl2, 3 mM CTP, and 15 mg of LegFHis6 in 25 mM sodium phosphate pH 7.8, 25 mM NaCl, with incubation at 37° C. for 5 h, and then 25° C. for 72 h. Metabolite purification. Typically, reactions were passed through an Amicon Ultra-15 (10,000 molecular weight cut-off) or Ultra-4 (5,000 molecular weight cut-off) filter membrane before analysis. As required, NDP-sugar preparations (GDP-Glc, GDP-GlcN, GDP-GlcNAc, CDP-GlcNAc, TDP-GlcNAc, and CMP-Leg) were lyophilized and desalted/purified using a Superdex Peptide 10/300 GL (Amersham Biosciences) column in 25 mM ammonium bicarbonate, pH 7.9. For further purity, the NDP-sugar samples above were subjected to anion-exchange chromatography (Mono Q 4.6/100 PE, Amersham Biosciences) using ammonium bicarbonate pH 7.9. Quantification of NDP-sugar preparations was determined using the molar extinction coefficients of CMP (ε260=7,400), GDP (ε260=11,500), TDP (ε260=8,700), and UDP (ε260=10,000).
CE analysis was performed using either a P/ACE 5510 or P/ACE MDQ system (Beckman Instruments, Mississauga, Ont) with diode array detection. The capillaries were bare silica 50 μm×50 cm, with a detector at 50 cm, and the running buffer was 25 mM sodium tetraborate pH 9.4. Samples were introduced by pressure injection for 6 sec, and the separation was performed at 18 kV for 20 min. Peak integration was done using the Beckman P/ACE station software.

Structure (SMILES) | LegB reaction product formation
CC(=O)N[C@H]1[C@@H](OP(=O)(O)OP(=O)(O)OC[C@H]2O[C@@H](n3ccc(=O)[nH]c3=O)[C@H](O)[C@@H]2O)O[C@H](CO)[C@@H](O)[C@@H]1O [UDP-GlcNAc, UDP-N-acetyl-α-D-glucosamine] | did not yield discernable product
CC(=O)NC1C(OP(=O)(O)OP(=O)(O)OCC2OC(n3cc(C)c(=O)[nH]c3=O)CC2O)OC(CO)C(O)C1O (stereo not shown) [TDP-GlcNAc, TDP-N-acetyl-glucosamine] | did not yield discernable product
CC(=O)NC1C(OP(=O)(O)OP(=O)(O)OCC2OC(n3ccc(N)nc3=O)C(O)C2O)OC(CO)C(O)C1O (stereo not shown) [CDP-GlcNAc, CDP-N-acetyl-glucosamine] | did not yield discernable product
Cc1cn([C@H]2C[C@H](O)[C@@H](COP(=O)(O)OP(=O)(O)O[C@H]3O[C@H](CO)[C@@H](O)[C@H](O)[C@H]3O)O2)c(=O)[nH]c1=O [TDP-Glc] | did not yield discernable product
